Test results reported in patent publication USRE42013E1, “Macrocyclic modulators of the ghrelin receptor” (Tranzyme Pharma Inc., priority 2003, dated 2010).
Like-named read-outs stand apart in the source and are kept apart here.

Experiments:
[1] = target: T1, human growth hormone secretagogue receptor (hGHS-R1a) (Homo sapiens, UniProt Q92847); test: Competitive radioligand binding assay (ghrelin receptor), [125I]-ghrelin displacement
T1 construct: purchased PerkinElmer BioSignal #RBHGHSM, lot#1887; host or cells: HEK-293, stably transfected
Description: The competitive binding assay at the human growth hormone secretagogue receptor (hGHS-R1a) was carried out analogously to assays described in the literature.
Multiscreen Harvest plates-GF/C (Millipore, #MAHFC1H60) • 4. […] Bottom seal (Millipore, #MATAH0P00) • 7. […] Binding Buffer: 25 mM Hepes (pH 7.4), 1 mM CaCl2, 5 mM MgCl2, 2.5 mM EDTA, 0.4% BSA Assay Volumes
Competition experiments were performed in a 300 μl filtration assay format. • 1. 220 μL of membranes diluted in binding buffer • 2. 40 μL of compound diluted in binding buffer • 3. […] Compound Handling
Compounds were provided frozen on dry ice at a stock concentration of 10 mM diluted in 100% DMSO and stored at −80° C. until the day of testing. On the test day, compounds were allowed to thaw at rt O/N and then diluted in assay buffer according to the desired test concentrations.
Plates were sealed with TopSeal-A, vortexed gently and incubated at rt for 30 min. The reaction was arrested by filtering samples through Multiscreen Harvest plates (pre-soaked in 0.5% polyethyleneimine) using a Tomtec Harvester, washed 9 times with 500 μL of cold 50 mM Tris-HCl (pH 7.4, 4° C.), and then plates were air-dried in a fumehood for 30 min. A bottom seal was applied to the plates prior to the addition of 25 μL of MicroScint-0 to each well. […] Results were expressed as counts per minute (cpm).
Data were analyzed by GraphPad Prism (GraphPad Software, San Diego, Calif.) using a variable slope non-linear regression analysis.
Compound structures for Tables 3A, 3B and 3D are presented with the various groups as defined for the general structure of formula I. For Tables 3B and 3D, in all entries, m, n and p are 0; X, Z1 and Z2 are each NH. For Table 3B, R1 is H for all entries. The tethers (T) are illustrated with the bonding to X and Z2 as indicated. The compounds themselves are shown for Table 3C.
• 1. […] Key Aspects of Method • 1. […] Results

[2] = target: T2, human ghrelin receptor (hGHS-R1a) (Homo sapiens, UniProt Q92847); details: Table 4; functional (agonist) activity at human ghrelin receptor; TFA salts unless otherwise noted
Description: (§1) B. Aequorin Functional Assay (Ghrelin Receptor)
(§2) This cell line is typically constructed by transfection of the human ghrelin receptor into CHO-K1 cells co-expressing Gα16 and the mitochondrially targeted Aequorin (Ref #ES-WT-A5). • 1. […] Assay buffer: DMEM (Dulbecco's Modified Eagles Medium) containing 0.1% BSA (bovine serum albumin; pH 7.0). • 3. Coelenterazine (Molecular Probes, Leiden, The Netherlands). Final test concentrations (N=8) for compounds of the invention: 10, 1, 0.3, 0.1, 0.03, 0.01, 0.003, 0.001 μM. Compound Handling
(§3) Assay plates were then prepared by appropriate dilution in DMEM medium containing 0.1% BSA. Under these conditions, the maximal final DMSO concentration in the assay was <0.6%.
(§4) AequoScreen™ cells were collected from culture plates with Ca^2+ and Mg^2+-free phosphate buffered saline (PBS) supplemented with 5 mM EDTA, pelleted for 2 min at 1000×g, re-suspended in DMEM—Ham's F12 containing 0.1% BSA at a density of 5×10^6 cells/mL, and incubated O/N at rt in the presence of 5 μM coelenterazinc. After loading, cells were diluted with assay buffer to a concentration of 5×10^5 cells/mL.
(§5) For agonist testing, 50 μL of the cell suspension was mixed with 50 μL of the appropriate concentration of test compound or ghrelin (reference agonist) in 96-well plates (duplicate samples). Ghrelin (reference agonist) was tested at several concentrations concurrently with the test compounds in order to validate the experiment. The emission of light resulting from receptor activation in response to ghrelin or test compounds was recorded using the Hamamatsu FDSS 6000 reader (Hamamatsu Photonics K.K., Japan).
Analysis and Expression of Results
(§6) Results were expressed as Relative Light Units (RLU). […] EC50, Hill slope and % Emax values are reported.
(§7) Key Aspects of Method • 1. Assay performed on CHO-K1 cells expressing the transfected, cloned human ghrelin receptor (hGHS-R1a) and Gα16. • 2. Suspended cells incubated O/N with coelenterazine. • 3. Stimulation of hGHS-R1a activates Gα16, causing intercellular Ca2+ release which ultimately leads to the oxidation of coelenterazine and the emission of a quantitative luminescent signal. • 4. Ghrelin was used as the positive control. • 5.

[3] = target: T2, human ghrelin receptor (hGHS-R1a); test: cell-based
Description: as §1, §2, §3, §4, §5
Analysis and Expression of Results
as §6, §7

[4] = test system: gastric emptying in fasted rats; test: Gastric emptying in fasted rats (phenol red methylcellulose meal); type: in vivo, rat (Wistar); details: i.v. immediately after meal, 15 min
Description: To examine the effects of compounds of the invention in a model for gastroparesis, compounds were evaluated for possible effects on gastric emptying in fasted rats.
GHRP-6 and test samples were dissolved in vehicle of 9% HPBCD/0.9% NaCl. Immediately following oral administration of methylcellulose (2%) containing phenol red (0.05%) (2 mL/rat), test substances or vehicle (9% HPBCD/0.9% NaCl) were each administered intravenously (i.v.) at a dosing volume of 5 mL/kg.
Male Wistar rats were provided by LASCO (A Charles River Licensee Corporation, Taiwan). Space allocation for 6 animals was 45×23×15 cm. Animals were housed in APEC® cages and maintained in a controlled temperature (22° C.-24° C.) and humidity (60%-80%) environment with 12 h light, 12 h dark cycles for at least one week in the laboratory prior to being used. Free access to standard lab chow for rats (Lab Diet, Rodent Diet, PMI Nutrition International, USA) and tap water was granted. All aspects of this work including housing, experimentation and disposal of animals were performed in general accordance with the Guide for the Care and Use of Laboratory Animals (National Academy Press, Washington, D.C., 1996).
Test substances were each administered intravenously to a group of 5 O/N-fasted Wistar derived male rats weighing 200±20 g immediately after methylcellulose (2%) containing phenol red (0.05%) was administered orally at 2 mL/animal. […] Following protein precipitation by 20% trichloroacetic acid (0.5 mL) and re-alkalization of the supernatant with 0.1 N NaOH, total phenol red remaining in the stomach was determined by a colorimetric method at 560 nm. A 30 percent or more (≧30%) increase in gastric emptying, detected as the decrease in phenol red concentration in the stomach relative to the vehicle control group, is considered significant.
• 1. […] Total phenol red remaining in the stomach was quantified by a colorimetric method at 560 nm. • 5. A >30% increase in gastric emptying, detected based on the phenol red concentration in comparison to the control group, is considered significant. […]

[5] = Table 3C, binding activity at the human ghrelin receptor, class symbols, read-out: Ki
[6] = Table 4, binding at human ghrelin receptor, TFA salts unless otherwise noted, read-out: Ki
[7] = binding activity at the human ghrelin receptor, [125I]-ghrelin displacement, hGHS-R1a/HEK-293 membranes, read-out: Ki
[8] = [125I]-ghrelin displacement, hGHS-R1a HEK-293 membranes, read-out: Binding Activity at the Human Ghrelin Receptor (Ki)
[9] = Table 3B, binding at human ghrelin receptor, [125I]-ghrelin displacement, read-out: Ki

T2 sequence (Q92847 whole entry): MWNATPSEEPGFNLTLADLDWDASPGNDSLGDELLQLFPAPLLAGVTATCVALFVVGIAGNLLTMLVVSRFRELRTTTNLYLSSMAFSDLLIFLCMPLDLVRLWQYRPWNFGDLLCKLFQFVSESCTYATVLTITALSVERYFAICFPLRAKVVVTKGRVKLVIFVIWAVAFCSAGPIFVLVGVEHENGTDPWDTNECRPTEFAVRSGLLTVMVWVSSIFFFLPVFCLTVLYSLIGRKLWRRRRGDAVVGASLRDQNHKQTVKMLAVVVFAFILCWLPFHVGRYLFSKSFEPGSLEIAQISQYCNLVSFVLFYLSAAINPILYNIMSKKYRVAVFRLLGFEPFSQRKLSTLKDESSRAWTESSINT
T1 sequence (Q92847 whole entry): as above

Row | Structure (SMILES) | Ki [1, 5] [nM] | Ki [1, 6] [nM] | EC50 [2] [nM] | Ki [1, 7] [nM] | EC50 [3] [nM] | Ki [1, 8] [nM] | Ki [1, 9] [nM] | gastric emptying of a solid meal in naïve rat [4]
1 | C[C@H]1NC(=O)C2(CCCC2)NCCOc2ccccc2C=CCNC(=O)[C@H](Cc2cccc(Cl)c2)NC1=O (stereo in doubt) [compound 351] | 10 to 100 | 10 to 100 | 1 to 100 | – | – | – | – | –
2 | CCCC1NCCOc2ccccc2CCCNC(=O)C(Cc2ccc(O)cc2)NC(=O)CN(C)C1=O (centres unmarked) [compound 7] | – | 100 to 1000 | – | 100 to 10000 | 1 to 100 | – | – | –
3 | CCCC1NCCOc2ccccc2C=CCNC(=O)C(Cc2ccccc2)NC(=O)CN(C)C1=O (centres unmarked) [compound 11] | – | 10 to 100 | – | 10 to 100 | 100 to 1000 | – | – | –
4 | O=C1NC/C=C/c2ccccc2OCCNC2(CCCC2)C(=O)NC2(CCCC2)C(=O)N[C@H]1Cc1ccccc1 [compound 18] | 10 to 100 | 10 to 100 | 1 to 100 | 10 to 100 | – | – | – | –
5 | CCC(C)C1NCCOc2ccccc2CCCNC(=O)C(Cc2ccc(-c3ccccc3)cc2)NC(=O)C(C)N(C)C1=O (centres unmarked) [compound 28] | – | 10 to 100 | – | 10 to 100 | 1 to 100 | – | – | –
6 | CCC(C)C1NCc2ccccc2CCCCCNC(=O)C(Cc2ccccc2)NC(=O)C(C)N(C)C1=O (centres unmarked) [compound 38] | – | 10 to 100 | – | 10 to 100 | 100 to 1000 | – | – | –
7 | CCCC1NCCOc2ccccc2C=CCNC(=O)C(Cc2ccccc2)NC(=O)C(C)N(C)C1=O (centres unmarked) [compound 39] | – | 0.1 to 10 | – | 10 to 100 | 100 to 1000 | – | – | –
8 | CCC(C)C1NCCOc2ccccc2C=CCNC(=O)C(Cc2ccccc2)NC(=O)C(C)N(C)C1=O (centres unmarked) [compound 40] | – | 0.1 to 10 | – | 0.1 to 10 | 1 to 100 | – | – | –
9 | CC(C)CC1NCCOc2ccccc2C=CCNC(=O)C(CC(C)C)NC(=O)C2(CCCC2)NC1=O (centres unmarked) [compound 47] | – | 100 to 1000 | – | 100 to 10000 | 1 to 100 | – | – | –
10 | CC(C)C1NCCOc2ccccc2C=CCNC(=O)C(Cc2ccccc2)NC(=O)C2(CCOCC2)NC1=O (centres unmarked) [compound 140] | – | 100 to 1000 | – | 100 to 10000 | 100 to 1000 | – | – | –
11 | COc1ccc(CC2NC(=O)C3(CCCC3)NC(=O)C(CC(C)C)NCCOc3ccccc3C=CCNC2=O)cc1 (centres unmarked) [compound 156] | – | 10 to 100 | – | 10 to 100 | 1 to 100 | – | – | –
12 | CCC(C)C1NCCOc2ccccc2CCCNC(=O)C(Cc2cccnc2)NC(=O)C(C)N(C)C1=O (centres unmarked) [compound 170] | – | 10 to 100 | – | 10 to 100 | 100 to 1000 | – | – | –
13 | CCC(C)C1NCCOc2ccccc2CCCNC(=O)C(CC(C)C)NC(=O)C(C)N(C)C1=O (centres unmarked) [compound 176] | – | 10 to 100 | – | 10 to 100 | 1 to 100 | – | – | –
14 | CCC(C)C1NCCOc2cccnc2CCCNC(=O)C(Cc2ccccc2)NC(=O)C(C)N(C)C1=O (centres unmarked) [compound 177] | – | 10 to 100 | – | 10 to 100 | 1 to 100 | – | – | –
15 | CCC(C)C1NCCOCC=CCCNC(=O)C(Cc2ccccc2)NC(=O)C(C)N(C)C1=O (centres unmarked) [compound 186] | – | 100 to 1000 | – | 100 to 10000 | 100 to 1000 | – | – | –
16 | CCC(C)C1NCCCc2ccccc2C=CCCNC(=O)C(Cc2ccccc2)NC(=O)C(C)N(C)C1=O (centres unmarked) [compound 191] | – | 100 to 1000 | – | – | 100 to 1000 | 100 to 10000 | – | –
17 | CCC(C)C1NCCCc2ccccc2CCCCNC(=O)C(Cc2ccccc2)NC(=O)C(C)N(C)C1=O (centres unmarked) [compound 192] | – | 10 to 100 | – | – | 100 to 1000 | 10 to 100 | – | –
18 | CCC(C)C1NCc2ccccc2CC=CCNC(=O)C(Cc2ccccc2)NC(=O)C(C)N(C)C1=O (centres unmarked) [compound 193] | – | 100 to 1000 | – | – | 100 to 1000 | 100 to 10000 | – | –
19 | CCC(C)C1NCc2ccccc2CC=CCCNC(=O)C(Cc2ccccc2)NC(=O)C(C)N(C)C1=O (centres unmarked) [compound 195] | – | 10 to 100 | – | – | 1 to 100 | 10 to 100 | – | –
20 | CCC(C)C1NCCOc2ccc(C(=O)O)cc2CCCNC(=O)C(Cc2ccccc2)NC(=O)C(C)N(C)C1=O (centres unmarked) [compound 197] | – | 100 to 1000 | – | – | > 1000 | 100 to 10000 | – | –
21 | CCC(C)C1NCCc2ccccc2CCCNC(=O)C(Cc2ccccc2)NC(=O)C(C)N(C)C1=O (centres unmarked) [compound 214] | – | 100 to 1000 | – | – | 100 to 1000 | 100 to 10000 | – | –
22 | CC1C(=O)NC(Cc2c(F)c(F)c(F)c(F)c2F)C(=O)NCCCc2ccccc2OCCNC(C2CC2)C(=O)N1C (centres unmarked) [compound 318] | – | 0.1 to 10 | – | – | 1 to 100 | – | 0.1 to 10 | –
23 | CC1C(=O)NC(Cc2ccc(F)cc2)C(=O)NCC#Cc2ccccc2OCCNC(C2CC2)C(=O)N1C (centres unmarked) [compound 354] | – | 10 to 100 | – | – | 1 to 100 | – | < 100 | –
24 | CC1C(=O)NC(Cc2ccc(F)cc2)C(=O)NCCCc2cc(NS(C)(=O)=O)ccc2OCCNC(C2CC2)C(=O)N1C (centres unmarked) [compound 374] | – | 10 to 100 | – | – | 1 to 100 | – | < 100 | –
25 | CCC(C)C1NCCOc2ccc(F)cc2CCCNC(=O)C(Cc2cccc(Cl)c2)NC(=O)C2(CCCC2)NC1=O (centres unmarked) [compound 382] | – | 10 to 100 | – | – | 100 to 1000 | – | < 100 | –
26 | CCC(C)C1NCCOc2ccccc2C2CC2CNC(=O)C(Cc2cccc(Cl)c2)NC(=O)C2(CCCC2)NC1=O (centres unmarked) [compound 388] | – | 0.1 to 10 | – | – | 1 to 100 | – | 0.1 to 10 | –
27 | CC1COc2ccccc2CCCNC(=O)C(Cc2ccc(F)cc2)NC(=O)C(C)N(C)C(=O)C(C2CC2)N1 (centres unmarked) [compound 394] | – | 0.1 to 10 | – | – | 100 to 1000 | – | 0.1 to 10 | –
28 | CCN(CC)CCNC(=O)c1cc(Cl)c(N)cc1OC [metoclopramide, Metoclopramide, reference compound] | – | – | – | – | – | – | – | significant gastric emptying
